Assay [1] in a line: Pig performance post weaning with LAM and FUC, Example 4. The format is in vivo. The text has this:
One hundred and ninety two piglets were weaned at twenty four days of age, with an initial live weight of 6.4±0.785 Kg and assigned to one of four dietary treatments or 21 days post weaning. The dietary treatments consisted of (T1) basal diet, (T2) basal diet with 300 ppm LAM, (T3) basal diet with 236 ppm FUC, (T4) Basal diet with 300 ppm LAM and 236 ppm FUC. Diets were formulated to have identical concentrations of digestible energy (DE) (16 MJ/Kg) and ileal digestible lysine (14 g/Kg). All amino acid requirements were met relative to lysine (Close, 1994). Chromium III oxide was added to the diets for determination of nutrient digestibility. The LAM and FUC were derived from Laminaria hyperborea.
Piglets were housed in groups of 4 and offered feed twice daily. Water was supplied ad-libitum. Any pig displaying symptoms of illness was treated appropriately and recorded. Pigs were weighed on day 0 (day of weaning), 7, 14 and 21. Feed intake was monitored weekly. Fresh faecal samples were taken on day 10 and were analysed for E. coli and Lactobacilli concentrations. Faeces samples were collected from each pen on day 12-17 and were retained for chemical analysis. Fresh faecal samples were removed on day 14 and were frozen and retained for volatile fatty acid analysis. Fresh faecal samples were taken on day 17 for pH determination.

Assay [2] can be described thus: VFA analysis and digesta pH in ileum, caecum and colon, Example 5. The format is in vivo, pig. The settings on record: for total VFAs: increasing LAM. An excerpt:
21 pigs with an initial weight of 17.9±2.2 Kg were assigned to one of the 3 dietary treatments: (T1) control; (T2) basal diet+300 ppm LAM; (T3) basal diet+600 ppm LAM. Experimental feeding continued for 21 days ad libitum. Diets were formulated to have similar digestible energy (DE) (14.4 MJ/Kg) and ileal digestible lysine (12.5 g/Kg). Post-slaughter, digestive tract was removed by dissection and digesta was removed from the ileum. Each digesta sample was serially diluted in maximum recovery diluent (MRD, Oxoid, Basingstoke, UK), and spread plated onto selective agars. Bifidobacteria, Lactobacilli and Enterobacteria species were isolated according to the methods described by Pierce et al. (2005). Digesta samples used to measure VFA concentration were collected from the caecum and the same location in the ileum and colon. VFA analysis was performed using gas liquid chromatography (GLC) according to the method described by Pierce et al., (2005).

For a further assay, the system named is IFN-γ. Nature of the assay: Cytokine gene expression in unchallenged ileum and colon tissue (qPCR), Example 5. The settings on record: unchallenged ileum or colon tissue; LAM 300, 600 ppm. The format is in vivo, pig. Here is the method: (§1) 21 pigs with an initial weight of 17.9±2.2 Kg were assigned to one of the 3 dietary treatments: (T1) control; (T2) basal diet+300 ppm LAM; (T3) basal diet+600 ppm LAM. Experimental feeding continued for 21 days ad libitum. Diets were formulated to have similar digestible energy (DE) (14.4 MJ/Kg) and ileal digestible lysine (12.5 g/Kg).
(§2) Ileal and colonic tissues was stabilised in RNAlater® solution and stored overnight at 4° C. The following day, RNAlater® was removed and samples were stored at −86° C. prior to RNA extraction.
(§3) Tissue samples for RNA extraction were removed from −86° C. and homogenised. 500 μl of lysis solution/2-ME was added to each sample and these were mechanically disrupted using one 5 mm stainless steel bead per sample. These were then placed in a Tissue Lyser (Qiagen) and lysates were homogenised for 3 mins and transferred to a GenElute Filtration Column (Sigma Aldrich) and RNA was extracted. 1 µg of total RNA was used for cDNA synthesis using oligo(dT)20 primer in a final reaction volume of 20 μl with Superscript™ III First-Strand synthesis system for reverse transcriptase-polymerase chain reaction (RT-PCR) (Invitrogen Life Technologies, Carlsbad, Calif.). At the last step of cDNA synthesis, treatment with E. coli RNase H (Invitrogen Corp.) was performed to digest the remaining RNA/mRNA template, resulting in the production of the single-stranded cDNA template for subsequent qRT-PCR reactions.
(§4) All porcine primers for the cytokine genes interferon gamma (IFN-γ), interleukin-1α (IL-1α), IL-6, IL-8, IL-10, IL-17, tumour necrosis factor (TNF-α), the mucin genes (MUCs 1, 2, 4, 5AC, 12, 13 and 20) and three reference genes, β-actin (ACTB), Glyceraldehyde-3-phosphate dehydrogenase (GAPDH) and Peptidylprolyl isomerase A (PPIA), were designed using Primer Express™ (PE Applied Biosystems, Foster City, Calif.) and synthesised by MWG Biotech (Milton Keynes, UK). These reference genes were previously validated for use in porcine tissue and qPCR was then carried out on the cDNA using the ABI PRISM 7900HT Fast sequence detection system for 96-well plates (Applied Biosystems, Foster City, Calif.). All samples were prepared in duplicate using SYBR Green Fast PCR Master Mix (Applied Biosystems, Foster City, Calif.), cDNA as template and specific primers for the genes selected. For each reaction 5 μl cDNA, 1.2 μl (forward and reverse primer mix, 5 μM), 10 μl Fast SYBR Green PCR Master Mix (PE Applied Biosystems, Foster City, Calif.) was added and made up to a final volume of 20 μl. The two step PCR program was as follows: 95° C. for 10 minutes for 1 cycle followed by 95° C. for 15 seconds and 60° C. for 1 minute for 40 cycles. The raw Ct values for the reference genes were converted to relative quantities using the formula Q=E ^ΔCt where E is the PCR efficiency of the assay and ^ΔCt is the value calculated for the difference between the lowest Ct value for each gene minus the Ct value of the sample in question. The relative quantities of the endogenous controls were then analysed for stability in geNorm (Vandesompele et al., 2002). The stability ‘M’ value generated by the geNorm application for the selected endogenous controls (ACTB, GAPDH and PPIA) indicated their suitability as endogenous controls for these intestinal samples. The geometric mean of the relative quantities for ACTB, GAPDH and PPIA (normalisation factor) was then calculated using geNorm. The relative quantities of each target gene were divided by the normalisation factor (obtained in geNorm) for that sample to give the final normalised relative expression.

For the next assay, the system named is IL-10. The assay is described as above. Particulars: unchallenged ileum or colon tissue; LAM 300, 600 ppm. The format is in vivo, pig. Here is the method:
as §1, §2, §3, §4

The next assay has as its system IL-17. The description is as above. The format is in vivo, pig. Particulars: unchallenged ileum or colon tissue; LAM 300, 600 ppm. Here is the method: as §1, §2, §3, §4
Another assay concerns IL-1α. The description is as above. The format is in vivo, pig. Particulars: unchallenged ileum or colon tissue; LAM 300, 600 ppm. Here is the method: as §1, §2, §3, §4
The next assay deals with IL-6. The assay is described as above. The format is in vivo, pig. The settings on record: unchallenged ileum or colon tissue; LAM 300, 600 ppm. Here is the method:
as §1, §2, §3, §4

The next assay has as its system IL-8. Described as above. The format is in vivo, pig. The settings on record: unchallenged ileum or colon tissue; LAM 300, 600 ppm. Here is the method:
as §1, §2, §3, §4

Another assay has as its system TNF-α. Described as above. The format is in vivo, pig. Particulars: unchallenged ileum or colon tissue; LAM 300, 600 ppm. Here is the method:
as §1, §2, §3, §4

laminarin: the “Gain: Feed ratio” value worked out at 0.763 in assay [1] (days 7-14, LAM supplemented diets (300 ppm) v unsupplemented (0.569)) and 0.703 in assay [1] (entire experimental period, LAM supplemented diets (300 ppm) v unsupplemented (0.646)). Moreover, the ADG in assay [1] (days 7-14 post weaning, LAM supplemented diets (300 ppm) v diets with no LAM (0.266)) is on record as 0.344; in assay [1] (entire experimental period, LAM supplemented diets (300 ppm) v no LAM (0.232)), 0.324. Also, the “average daily feed intake” value in [1] (weaned pigs, 21 days, LAM 300 ppm, FUC 236 ppm) is listed as “no effect”. For the same substance, the “digesta pH” value in [2] (any intestinal region) is listed as “no significant alteration”. The “total VFAs” value in [2] (caecum) is on record as “significant increase”; in [2] (ileum or colon) it was “no significant effects”. For the same substance, the IFN-γ gene expression entry with IFN-γ was “no effects”. The IL-10 gene expression entry with IL-10 was “no effects”. In the assay on IL-17, the IL-17 gene expression result is “no effects”. Further, the IL-1α gene expression result with IL-1α is “no effects”. In addition, in the assay with IL-6, the IL-6 gene expression entry was “no effects”. Moreover, the IL-8 gene expression entry in the assay on IL-8 was “no effects”. In the assay on TNF-α, the TNF-α gene expression entry is “no effects”.

The record behind these values is patent US9241951B2, “Of gastrointestinal health, immunity and performance by dietary intervention” (BIOATLANTIS LTD, priority 2009, dated 2016).
